Data published in patent US20260001876A1, “Compounds and Their Use as PDE4 Activators” (Mironid Limited, priority 2022, published 2026).

Experiments:
[1] = biological target: T1, full-length human PDE4D5 (long isoform) (Homo sapiens, UniProt Q08499); test: PDE assay ([3H]cAMP hydrolysis) with PDE4D5 cell lysate cytosol fraction; assay type: biochemical; conditions: 100 μM test compound; mean % increase in counts over basal activity
T1 construct: cell lines that stably expressed the full-length human PDE4 long isoforms and the full length human PDE4B2 short isoform; made in house; cytosol fraction of the cell lysate, not purified
T1 sequence (Q08499 1-745 isoform Q08499-6): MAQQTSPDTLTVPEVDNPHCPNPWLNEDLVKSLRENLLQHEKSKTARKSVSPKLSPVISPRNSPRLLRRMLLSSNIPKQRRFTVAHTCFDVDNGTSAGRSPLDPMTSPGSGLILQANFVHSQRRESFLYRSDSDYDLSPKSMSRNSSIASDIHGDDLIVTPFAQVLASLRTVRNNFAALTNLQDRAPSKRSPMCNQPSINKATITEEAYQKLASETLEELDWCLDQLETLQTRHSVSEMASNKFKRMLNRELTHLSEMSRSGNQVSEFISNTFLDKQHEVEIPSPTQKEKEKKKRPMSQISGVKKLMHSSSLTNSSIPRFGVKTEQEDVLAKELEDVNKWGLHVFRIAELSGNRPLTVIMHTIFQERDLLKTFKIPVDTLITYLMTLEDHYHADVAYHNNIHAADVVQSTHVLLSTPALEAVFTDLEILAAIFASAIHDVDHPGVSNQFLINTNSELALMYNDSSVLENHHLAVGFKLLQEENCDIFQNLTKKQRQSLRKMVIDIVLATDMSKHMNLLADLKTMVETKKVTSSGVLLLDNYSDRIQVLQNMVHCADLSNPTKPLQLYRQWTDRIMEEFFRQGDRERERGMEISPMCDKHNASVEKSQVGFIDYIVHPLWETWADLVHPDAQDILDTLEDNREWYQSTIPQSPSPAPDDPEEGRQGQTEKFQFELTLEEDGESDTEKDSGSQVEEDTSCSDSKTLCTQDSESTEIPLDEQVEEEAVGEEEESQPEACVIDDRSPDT
Description: (§1) HEK 293 and MDCK cells (Public Health England, Cell Culture Collections) were maintained in Dulbecco's Modified Eagle's Medium (DMEM) supplemented with 10% (v/v) fetal bovine serum (FBS) (Seralab), 2 mM L-glutamine and 100 U/mL penicillin streptomycin cocktail (ThermoFisher); termed complete media. Clonal HEK 293 cell lines were maintained in complete media supplemented with 0.6 mg/ml G418 (Enzo Life Sciences). Mouse inner medullary collecting duct (m-IMCD3) cells [American Type Culture Collection (ATCC)] were maintained in media consisting of DMEM/Hams F-12 50/50 Mix (DMEM F12; Corning) supplemented with penicillin streptomycin cocktail (100 U/mL) and FBS (10% v/v) (DMEM F12-10% FBS).
(§2) Experiment 1: Measurement of Modulation of Enzyme Activity by PDE4 Long Form Activators of the Present Invention Using Full-Length Human PDE4 Isoforms; Long Forms PDE4D5, PDE4C3, PDE4B1 and Short Form PDE4B2
(§3) (Marchmont, R. J. and Houslay, M. D. Biochem. J. 187:381-92, 1980)
(§4) Exogenous expression of long form PDE4 enzymes and stable cell line generation For transient transfection of exogenous PDE4 long isoforms, HEK 293 cells were transfected with pcDNA3.1 or pDEST™ PDE4 expression vectors using Lipofectamine LTX/Plus reagent (Invitrogen) as outlined by the manufacturer.
(§5) Where stable cell lines were generated the clonal isolates were expanded to obtain cell lines that stably expressed the full-length human PDE4 long isoforms and the full length human PDE4B2 short isoform. These were called the HEK-PDE4D5, HEK-PDE4B1 and HEK-PDE4B2 cell lines, respectively.
(§6) Lysate Preparation (Using PDE4D5 as a Typical Example)
(§7) HEK-PDE4D5 cells were seeded out in 100 mm plates and incubated at 37° C. in an atmosphere of 5% CO2, 95% air. Cell lysates were prepared using KHEM buffer [50 mM KCl, 10 mM EGTA, 50 mM HEPES (pH 7.2), 1.92 mM MgCl2].
(§8) To prepare the cell lysates, the 100 mm plates containing the cells were placed on ice and washed with ice-cold PBS (phosphate buffered saline, pH 7.4). KHEM buffer (500 μL) was added to the cells. Cells were then scraped off the plate and triturated using a needle (BD Microlance™ 0.8, 40 mm). The lysed cells were then centrifuged at 2000 rpm for 10 minutes to remove cell debris and the supernatant (cell lysate containing recombinant PDE4D5) was transferred to a fresh tube and kept on ice.
(§9) Cytosol Fraction Preparation (Using PDE4D5 as a Typical Example)
(§10) The cell lysate containing recombinant PDE4D5 was transferred into a centrifuge tube and placed into an ultracentrifuge (BECKMAN COULTER) and spun at high speed (100,000g) for 30 minutes at 4° C. The cytosol fraction was then collected and its protein amount determined using a BCA protein assay.
(§11) PDE Assay—(Using PDE4D5 as a Typical Example)
(§12) PDE assays were performed in thin-walled V-bottomed 96-well plates. […]

[2] = biological target: T2, full-length human PDE4B2 (short isoform) (Homo sapiens, UniProt Q07343); test: PDE assay ([3H]cAMP hydrolysis) with PDE4B2 cell lysate cytosol fraction; assay type: biochemical; conditions: 100 μM test compound; mean % increase in counts over basal activity
T2 construct: the full length human PDE4B2 short isoform; made in house; cytosol fraction of the cell lysate, not purified
T2 sequence (Q07343 1-564 isoform Q07343-2): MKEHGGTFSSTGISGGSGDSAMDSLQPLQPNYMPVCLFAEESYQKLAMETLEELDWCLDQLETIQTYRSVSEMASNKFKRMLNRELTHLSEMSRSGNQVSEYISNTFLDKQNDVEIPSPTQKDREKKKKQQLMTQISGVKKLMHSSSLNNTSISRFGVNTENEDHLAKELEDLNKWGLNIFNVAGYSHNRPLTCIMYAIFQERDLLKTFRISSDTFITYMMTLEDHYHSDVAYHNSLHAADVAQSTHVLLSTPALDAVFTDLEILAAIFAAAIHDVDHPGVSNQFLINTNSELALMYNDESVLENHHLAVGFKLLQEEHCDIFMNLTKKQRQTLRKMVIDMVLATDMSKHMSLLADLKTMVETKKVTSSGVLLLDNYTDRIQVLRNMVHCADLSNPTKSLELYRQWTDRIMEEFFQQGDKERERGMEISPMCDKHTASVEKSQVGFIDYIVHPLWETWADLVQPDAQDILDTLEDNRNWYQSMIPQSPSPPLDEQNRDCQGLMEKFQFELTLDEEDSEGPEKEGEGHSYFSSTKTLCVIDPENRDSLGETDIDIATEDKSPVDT
Description: as §1, §2, §3, §4, §5, §6, §7, §8, §9, §10, §11, §12

[3] = system: m-IMCD3 cells expressing PDE4 long forms; test: cAMP levels in assay media of PGE2-stimulated m-IMCD3 3D cell culture; assay type: cell-based; conditions: Mus musculus, mIMCD3; 3 μM test compound; compared to 100% for (DMSO + PGE2); read-out: cAMP level (% of PGE2-stimulated)
Description: as §1
Experiment 2: Reduction of CAMP Levels in m-IMCD3 Cell Culture Treated with PDE4 Long Form Activators
Activation of intracellular PDE4 long forms leads to a reduction of both intracellular CAMP and externalised cAMP (Omar et al., PNAS 116:13320-13329, 2019). This reduction may be measured in the cell culture media supernatant of 3D cystic cell cultures, such as in the m-IMCD3 cell cyst suppression assay described in Experiment 3.
Following the completion of the m-IMCD3 cell cyst suppression assay (Experiment 3), the CAMP levels in the assay media from individual or pooled assay wells was measured using a CAMP ELISA kit (Enzo Life Sciences) or a LANCE Ultra CAMP kit (PerkinElmer) according to the manufacturer's instructions.
Treatment with PDE4 long form activators reduced CAMP levels in PGE2-stimulated m-IMCD3 cell culture.

m-IMCD3 cells = test: Inhibition of PGE2-stimulated in vitro cyst formation in m-IMCD3 cells (3D culture); assay type: cell-based; conditions: Mus musculus, mIMCD3, 144 h, mean cyst area, 100% for (DMSO + PGE2) and 0% for DMSO control, 6 days of culture; for activity at 3 µM: read-out: % Cyst area* after incubation with 3 μM test compound
Summary of the method: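 m-IMCD3 cells in a 3D collagen I/Matrigel matrix at 37 °C, 5% CO2 were dosed 18–24 h after plating with compound (0.1% DMSO) plus 100 nM PGE2, in quadruplicate, replenished after 2–3 days. On day 6, z-stack imaging measured mean cyst area, normalised to DMSO+PGE2 (100%) and DMSO alone (0%).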

| Structure (SMILES) | % increase in PDE4D5 (long isoform) activity at 100 μM* (%) [1] [%] | % increase in PDE4B2 (short isoform) activity at 100 μM* [2] [%] | activity at 3 µM [3] [%] | activity at 10 µM (m-IMCD3 cells; 10 μM, read-out: % Cyst area* after incubation with 10 μM test compound) [%] | activity at 3 µM (m-IMCD3 cells) [%] |
| --- | --- | --- | --- | --- | --- |
| O=C(COc1ccc(F)cc1)N1CCc2nc(N3C4CCC3CNC4)ccc2C1 [Example 46, 1-(2-(3,8-diazabicyclo[3.2.1]octan-8-yl)-7,8-dihydro-1,6-naphthyridin-6(5H)-yl)-2-(4-fluorophenoxy)ethan-1-one] | 94 | 6 | 42 | – | – |
| O=C(Cc1ccc(F)cc1)N1CCc2nc(N3C4CCC3CNC4)ccc2C1 [Example 48, 1-(2-(3,8-diazabicyclo[3.2.1]octan-8-yl)-7,8-dihydro-1,6-naphthyridin-6(5H)-yl)-2-(4-fluorophenyl)ethan-1-one] | 31 | −9 | 57 | -5 | – |
| O=C(Cc1ccc(F)cc1)N1CCc2nc(N3C4CCC3CNC4)ncc2C1 [Example 139, 1-(2-(3,8-diazabicyclo[3.2.1]octan-8-yl)-7,8-dihydropyrido[4,3-d]pyrimidin-6(5H)-yl)-2-(4-fluorophenyl)ethan-1-one] | 28 | −1 | – | – | 1 |
| CCN1CC2CCC(C1)N2c1ccc2c(n1)CCN(S(=O)(=O)Cc1ccc(F)cc1)C2 [Example 159, 2-(3-ethyl-3,8-diazabicyclo[3.2.1]octan-8-yl)-6-((4-fluorobenzyl)sulfonyl)-5,6,7,8-tetrahydro-1,6-naphthyridine] | 35 | 2 | – | – | 1 |
| O=S(=O)(Cc1ccccc1)N1CCc2nc(N3C4CCC3CNC4)ccc2C1 [Example 162, 6-(benzylsulfonyl)-2-(3,8-diazabicyclo[3.2.1]octan-8-yl)-5,6,7,8-tetrahydro-1,6-naphthyridine] | – | – | 38 | – | -3 |
| CCN1CC2CCC(C1)N2c1ccc2c(n1)CCN(S(=O)(=O)Cc1ccccc1)C2 [Example 163, 6-(benzylsulfonyl)-2-(3-ethyl-3,8-diazabicyclo[3.2.1]octan-8-yl)-5,6,7,8-tetrahydro-1,6-naphthyridine] | – | – | 39 | – | -1 |
| O=C(N[C@H]1CCOc2ccccc21)N1CCc2nc(N3C4CCC3CNC4)ccc2C1 [Example 166, 2-(3,8-diazabicyclo[3.2.1]octan-8-yl)-N—((S)-chroman-4-yl)-7,8-dihydro-1,6-naphthyridine-6(5H)-carboxamide] | – | – | 35 | – | 3 |
